This note sets out measurements from ChEMBL document CHEMBL2434923, “Synthesis of quinoidal molecules: strategies towards bioactive compounds with an emphasis on lapachones” (Eur J Med Chem, 2013).

For test [1], the system named is KB. Briefly: Cytotoxicity against human KB cells. It counts as functional, cell-based.
The test system of test [2] is HeLa. Briefly: Cytotoxicity against human HeLa cells. It counts as functional, cell-based.
A short description of test [3]: Cytotoxicity against human HepG cells. It counts as functional, cell-based.
Test [4] relates to Trypanosoma cruzi. Nature of the test: Antitrypanosomal activity against Trypanosoma cruzi after 24 hrs. It counts as functional, organism-based.
Test [5] relates to Trypanosoma cruzi. Briefly: Antitrypanosomal activity against Trypanosoma cruzi. It counts as functional, organism-based.

Regarding `O=C1C(=O)c2ccccc2C2=C1CCO2`, the IC50 in test [1], in test [2] and in test [3] was 0.92 µM in each case.

As for `CC1(C)CCc2c(c3ccccc3c3nc(-c4ccccc4)oc23)O1`, it took 284 µM to reach half-maximal inhibition in test [4] (IC50).

For `CC1(C)CCc2c(c3ccccc3c3nc(-c4c[nH]c5ccccc45)[nH]c23)O1`, half-maximal inhibition in test [5] (IC50) was put at 15.4 µM.

Take `O=C1C(=O)c2ccccc2C2=C1CCCO2`: the 50% inhibitory concentration (IC50) in test [1], in test [2] and in test [3] was 0.92 µM in each case.

Take `CC1(C)CCc2c(c3ccccc3c3nc(-c4ccccc4)[nH]c23)O1`: the IC50 (usually the point on the concentration scale where inhibition reaches its midpoint) in test [5] came out at 39.4 µM.

On to `CC1(C)CCc2c(c3ccccc3c3ncoc23)O1`, for which, in test [4], the IC50 came out at 325 µM.

In test [5], `Cc1ccc(-c2nc3c([nH]2)c2c(c4ccccc43)OC(C)(C)CC2)cc1` returned an IC50 of 15.5 µM.
